What all share (assay): NCI tumour cell line growth inhibition, 48 h
Assay [1] concerns KM12.
The test system of assay [2] is ACHN.
The test system of assay [3] is HOP-92.
Assay [4] concerns OVCAR-5.
In assay [5] the test system is SN12C.
Assay [6] relates to UO-31.
Assay [7] deals with OVCAR-3.
The subject of assay [8] is SK-OV-3.
Assay [9] concerns NCI-H226.
Assay [10] concerns MOLT-4.
The test system of assay [11] is SW-620.
Assay [12] concerns UACC-257.
Assay [13] has as its system MDA-MB-435.
For assay [14], the system named is RXF 393.
Assay [15] deals with PC-3.
Assay [16] deals with SK-MEL-28.
Assay [17] relates to SF-539.
In assay [18] the test system is SNB-75.
In assay [19] the test system is M14.
Assay [20] concerns A549.

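Briefly, cells in 96-well plates were exposed to five compound concentrations for 48 h, and endpoints were estimated by linear interpolation. GI50 = concentration required for 50% inhibition of growth.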 The source made the active and inactive calls. No stated cut-off is given here; in the data, active = GI50 up to about 1.1 µM and inactive = higher.

Turning to `CCOC(=O)Nc1sc2c(c1C#N)CCCC2`, the GI50 is 25.9 µM (inactive) in [1]; > 100 µM (inactive) in [2]; 47.3 µM (inactive) in [3]; > 100 µM (inactive) in assay [4]; > 100 µM (inactive) in assay [5]; 27.7 µM (inactive) in assay [6]. For the same compound, the GI50 is > 100 µM (inactive) in assay [7]; > 100 µM (inactive) in assay [8]; 89.5 µM (inactive) in [9]; 62.5 µM (inactive) in [10]; > 100 µM (inactive) in assay [11]; > 100 µM (inactive) in [12]. The GI50 was 48.2 µM (inactive) in [13], > 100 µM (inactive) in assay [14], 66.4 µM (inactive) in assay [15] and > 100 µM (inactive) in assay [16].

On to `COc1cc2c(c(O)c1OC)C(=O)[C@@H]1CCC(=O)N1C2`, for which the GI50 in [1] was > 100 µM (inactive); in assay [2], > 100 µM (inactive); in assay [3], 71 µM (inactive); in assay [4] it was > 100 µM (inactive); in [5], > 100 µM (inactive); in [6], > 100 µM (inactive). Besides, the GI50 in [7], in [17], in [8], in assay [9], in [18] and in [10] was > 100 µM (inactive) throughout. The GI50 in assay [11], in assay [12], in assay [19], in assay [13], in assay [20] and in [15] was > 100 µM (inactive) throughout. For the same compound, in assay [16], the GI50 is > 100 µM (inactive).

For `COc1ccc(OC)c(C2Cc3cnc4nc(N)nc(N)c4c3C2)c1` (stereo not given), the GI50 in [1] is 24.3 µM (inactive); in assay [2], 32.6 µM (inactive); in assay [3], 24.3 µM (inactive); in [4], 32.9 µM (inactive); in assay [5] it was 21.7 µM (inactive); in assay [6], 71.9 µM (inactive). For the same compound, the GI50 in [7] is 20.5 µM (inactive); in [17], 13.7 µM (inactive); in assay [8] it was 31.8 µM (inactive); in assay [18], 17.4 µM (inactive); in assay [10] it was 24.5 µM (inactive); in assay [11], 33.2 µM (inactive). Besides, the GI50 in assay [12] is 18.3 µM (inactive); in assay [19], 36.1 µM (inactive); in assay [13], 26.1 µM (inactive); in assay [14], 19.9 µM (inactive); in assay [20] it was 41.5 µM (inactive); in assay [15], 22.4 µM (inactive). Also, in assay [16], the GI50 was 33.7 µM (inactive).

On to `COc1ccc2c(c1)CC1(O)COc3cc(OC)ccc3C1O2` (stereo not given), for which the GI50 in assay [1], in assay [2], in [3], in assay [4], in assay [5] and in assay [6] was > 100 µM (inactive) each time. The GI50 in assay [7] was > 100 µM (inactive); in assay [17], > 100 µM (inactive); in assay [8], > 100 µM (inactive); in assay [9] it was > 100 µM (inactive); in assay [10] it was 48.4 µM (inactive); in assay [11], 95.1 µM (inactive). The GI50 in [12] is 61.8 µM (inactive); in assay [19], > 100 µM (inactive); in assay [13] it was > 100 µM (inactive); in [20], > 100 µM (inactive); in assay [15], > 100 µM (inactive).

`O=C1CN(c2ccccc2)C(=O)CN1CCN1CC(=O)N(c2ccccc2)CC1=O`: the GI50 in [1], in [2], in assay [3], in assay [4], in assay [5] and in assay [6] was > 100 µM (inactive) each time. The GI50 in assay [7] is > 100 µM (inactive); in assay [17] it was > 100 µM (inactive); in assay [8] it was > 100 µM (inactive); in assay [18], > 100 µM (inactive); in [10] it was > 10 µM (inactive); in assay [11], > 100 µM (inactive). Also, the GI50 in assay [12], in assay [19], in [13], in assay [14], in assay [20] and in assay [15] was > 100 µM (inactive) throughout. In addition, the GI50 in assay [16] is > 100 µM (inactive).

With `COC(=O)C1=COC(C)C2C[n+]3ccc4c([nH]c5ccccc54)c3CC12` (stereo not given), the GI50 in assay [1], in assay [2], in assay [3], in assay [4], in assay [5] and in assay [6] was > 100 µM (inactive) each time. The GI50 in assay [7] is > 100 µM (inactive); in assay [17] it was > 100 µM (inactive); in assay [8] it was > 100 µM (inactive); in assay [9] it was 44.9 µM (inactive); in [18], > 100 µM (inactive); in assay [10], 38.9 µM (inactive). For the same compound, the GI50 in assay [11], in assay [12], in assay [19], in assay [13], in assay [20] and in [15] was > 100 µM (inactive) each time. In addition, in [16], the GI50 was > 100 µM (inactive).

Take `C=C1C(=O)C23CC1CCC2C12CO[C@H](O)[C@H]1C(C)(C)[C@H](OC(C)=O)C[C@H]2OC3=O` (stereo not given in full): the GI50 in [1] was 23 µM (inactive); in assay [2], 15.9 µM (inactive); in [3] it was 10.1 µM (inactive); in [4] it was 18.8 µM (inactive); in assay [5], 21.1 µM (inactive); in assay [6] it was 22.9 µM (inactive). Also, the GI50 in assay [7] was 22.5 µM (inactive); in assay [17], 20 µM (inactive); in [8] it was > 100 µM (inactive); in assay [9] it was > 100 µM (inactive); in assay [18] it was 46.2 µM (inactive); in assay [10], 15.2 µM (inactive). The GI50 in assay [11] was 14.3 µM (inactive); in assay [12], 30.3 µM (inactive); in assay [19], 25.4 µM (inactive); in assay [13], 21.5 µM (inactive); in assay [20], > 100 µM (inactive); in assay [15], > 100 µM (inactive). Besides, the GI50 in assay [16] was 17.1 µM (inactive).

For the compound `COC(=O)Nc1nc2cc(C(=O)c3cccs3)ccc2[nH]1` [NOCODAZOLE], the GI50 in assay [1] was 0.0139 µM (active); in assay [2], 0.225 µM (active); in assay [3], 0.292 µM (active); in [4] it was 20.7 µM (inactive); in [5], 0.074 µM (active); in [6] it was 0.0579 µM (active). Also, the GI50 in [8] is 0.0165 µM (active); in [9], 0.0625 µM (active); in [10] it was 0.0205 µM (active); in assay [11] it was 0.0141 µM (active); in [12], < 0.148 µM (active); in assay [19], 0.014 µM (active). Moreover, the GI50 in assay [13] is 0.0111 µM (active); in assay [14], 0.0134 µM (active); in assay [20] it was 0.0186 µM (active); in assay [15], 0.0141 µM (active); in assay [16], 0.0957 µM (active).
